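Interpolation was linear, between the two tested concentrations surrounding the appropriate level; five concentrations were tested over 48 hours in 96-well plates. Here, GI50 denotes the concentration required for 50% inhibition of growth. TGI is the concentration that stops growth completely.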
Tests used:
Test in all cases: inhibition of tumour cell growth, NCI panel, 48 h
CCRF-CEM leukemia = test system: CCRF-CEM leukemia
MCF7 breast = test system: MCF7 breast
MDA-MB-231 breast = test system: MDA-MB-231 breast
MOLT-4 leukemia = test system: MOLT-4 leukemia
OVCAR-8 ovarian = test system: OVCAR-8 ovarian
PC-3 prostate = test system: PC-3 prostate
SK-MEL-5 melanoma = test system: SK-MEL-5 melanoma
UACC-257 melanoma = test system: UACC-257 melanoma
HCT-15 colon = test system: HCT-15 colon
NCI/ADR-RES ovarian = test system: NCI/ADR-RES ovarian

Compound | TGI (CCRF-CEM leukemia) | TGI (MCF7 breast) | TGI (MDA-MB-231 breast) | TGI (MOLT-4 leukemia) | TGI (OVCAR-8 ovarian) | TGI (PC-3 prostate) | TGI (SK-MEL-5 melanoma) | TGI (UACC-257 melanoma) | TGI (HCT-15 colon) | TGI (NCI/ADR-RES ovarian) | GI50 (CCRF-CEM leukemia) | GI50 (HCT-15 colon) | GI50 (MCF7 breast) | GI50 (MDA-MB-231 breast) | GI50 (MOLT-4 leukemia) | GI50 (OVCAR-8 ovarian) | GI50 (PC-3 prostate) | GI50 (SK-MEL-5 melanoma) | GI50 (UACC-257 melanoma)
Cc1nc2ccccc2c(=O)n1NC(=O)Cc1ccccc1 | > 100 µM | > 100 µM | > 100 µM | > 100 µM | > 100 µM | > 100 µM | > 100 µM | > 100 µM |  |  |  |  |  |  |  |  |  |  | 
O=C(CCCn1ccnc1[N+](=O)[O-])NCCn1cnc([N+](=O)[O-])c1 | > 100 µM | > 100 µM |  | > 100 µM | > 100 µM | > 100 µM | > 100 µM | > 100 µM | > 100 µM | > 100 µM |  |  |  |  |  |  |  |  | 
COc1cc(C/C=C/c2ccccc2)c(OC)cc1O | 52.3 µM |  | 52.9 µM | 52.8 µM | 37 µM | 67.2 µM | 62.3 µM | > 100 µM | 37.2 µM | 72 µM |  |  |  |  |  |  |  |  | 
CC1SC2=NC3=C(c4ccccc4C3=O)C(c3ccc(Br)cc3)N2C1=O (stereo not given) | > 100 µM |  |  | > 100 µM | > 100 µM |  | > 100 µM | > 100 µM | > 100 µM |  |  |  |  |  |  |  |  |  | 
CCN(CC)c1ccc(/C=C/C(=O)c2cccc(NS(C)(=O)=O)c2)cc1 | 18.1 µM | > 100 µM | > 100 µM | > 100 µM | > 100 µM | > 100 µM | > 100 µM | > 100 µM | > 100 µM |  | 3.19 µM | 3.44 µM | 3.72 µM | 9.7 µM | 4.09 µM | > 100 µM | 6.35 µM | 4.21 µM | 92.5 µM
O=C1c2c(c3c4ccccc4n4c3c3c2c2ccccc2n3C/C=C\C4)C(=O)N1Cc1ccccc1 | > 100 µM |  |  | > 100 µM | > 100 µM |  | > 100 µM | > 100 µM | > 100 µM |  |  |  |  |  |  |  |  |  | 
CSC(=S)N(C)NC(=O)c1cccc(C(=O)NN(C)C(=S)SC)n1 | > 100 µM |  |  | > 100 µM | > 100 µM |  | > 100 µM | 56.9 µM | > 100 µM |  |  |  |  |  |  |  |  |  | 
O=C(N/C(=C\c1ccc([N+](=O)[O-])cc1)c1nc2[nH]c(=S)[nH]c(=O)c2[nH]1)c1ccccc1 | > 100 µM |  |  | > 100 µM | > 100 µM |  | > 100 µM |  | > 100 µM |  |  |  |  |  |  |  |  |  | 
O=C(c1ccc(Cl)cc1)N(C(=S)N1CCN(c2ccccn2)CC1)c1ccccc1 | > 100 µM |  |  | > 100 µM | > 100 µM |  | > 100 µM | > 100 µM | > 100 µM |  |  |  |  |  |  |  |  |  | 
COc1ccc(CNc2nc3ccccc3nc2-c2cccs2)cc1OC | > 100 µM |  |  | > 100 µM | > 100 µM |  |  | > 100 µM | > 100 µM |  |  |  |  |  |  |  |  |  | 
CC(C)O/C=C1\C(=O)C2(SCCS2)[C@H]2CCCC[C@@H]12 | 73.2 µM |  |  | 46.4 µM | > 100 µM |  | > 100 µM | > 100 µM | > 100 µM |  |  |  |  |  |  |  |  |  | 
CCOC(=O)CNC(SC)=C(C#N)C#N | > 100 µM |  |  | > 100 µM | > 100 µM |  | > 100 µM | > 100 µM | > 100 µM |  |  |  |  |  |  |  |  |  | 
Cc1cn(C2C=CC(=O)C(C)O2)c(=O)[nH]c1=O (stereo not given) | 32.5 µM |  |  | 40.9 µM | 35.5 µM |  | 28.1 µM | 27.8 µM |  |  |  |  |  |  |  |  |  |  | 

Reference: PubChem BioAssay (NCI)
